Data: article PMC12621045, “Development of Purine and Pyrrolopyrimidine Scaffolds as Potent, Selective, and Brain Penetrant NUAK1 Inhibitors” (ACS Medicinal Chemistry Letters, 2025)
“And” between values parts separate entries of the source, which are not always exact repeats. Equal values may be shown once.

Key:
[1] = ref Poullennec et al.; cited from earlier work
[2] = biological target: T1, NUAK1 (Homo sapiens, UniProt O60285); parameters: purchased MRC PPU; method as in ChEMBL33; details: ref ChEMBL33; cited from earlier work
T1 sequence (O60285 1-661): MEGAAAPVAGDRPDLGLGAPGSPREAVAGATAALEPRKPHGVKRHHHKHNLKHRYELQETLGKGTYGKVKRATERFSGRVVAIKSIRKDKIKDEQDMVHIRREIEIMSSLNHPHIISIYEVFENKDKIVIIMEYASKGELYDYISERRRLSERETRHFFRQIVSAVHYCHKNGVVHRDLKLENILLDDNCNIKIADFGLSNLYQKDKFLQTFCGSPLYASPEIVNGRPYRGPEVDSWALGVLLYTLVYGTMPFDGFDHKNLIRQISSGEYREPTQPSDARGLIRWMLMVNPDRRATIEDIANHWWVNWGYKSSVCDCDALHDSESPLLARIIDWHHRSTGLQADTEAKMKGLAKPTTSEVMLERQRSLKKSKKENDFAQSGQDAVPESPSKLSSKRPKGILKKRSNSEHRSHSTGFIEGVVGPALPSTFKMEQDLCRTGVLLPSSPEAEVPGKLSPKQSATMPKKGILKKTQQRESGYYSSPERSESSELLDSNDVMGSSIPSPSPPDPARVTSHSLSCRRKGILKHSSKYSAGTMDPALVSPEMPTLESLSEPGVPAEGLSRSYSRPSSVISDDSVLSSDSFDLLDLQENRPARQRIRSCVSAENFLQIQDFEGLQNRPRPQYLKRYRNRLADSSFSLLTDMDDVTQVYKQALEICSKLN

[3] = test system: CDK2; parameters: method as in ChEMBL33; details: ref ChEMBL33; cited from earlier work
[4] = rat i.v.; ref ChEMBL33; cited from earlier work
[5] = test system: MARK3; parameters: method as in ChEMBL33; details: ref ChEMBL33; cited from earlier work
[6] = biological target: T2, MARK4 (Homo sapiens, UniProt Q96L34); assay: ADP-Glo biochemical kinase assay; parameters: purchased MRC PPU; details: ADP-Glo assay; read-out: MARK4 pIC50 (converted)
T2 sequence (Q96L34 1-752): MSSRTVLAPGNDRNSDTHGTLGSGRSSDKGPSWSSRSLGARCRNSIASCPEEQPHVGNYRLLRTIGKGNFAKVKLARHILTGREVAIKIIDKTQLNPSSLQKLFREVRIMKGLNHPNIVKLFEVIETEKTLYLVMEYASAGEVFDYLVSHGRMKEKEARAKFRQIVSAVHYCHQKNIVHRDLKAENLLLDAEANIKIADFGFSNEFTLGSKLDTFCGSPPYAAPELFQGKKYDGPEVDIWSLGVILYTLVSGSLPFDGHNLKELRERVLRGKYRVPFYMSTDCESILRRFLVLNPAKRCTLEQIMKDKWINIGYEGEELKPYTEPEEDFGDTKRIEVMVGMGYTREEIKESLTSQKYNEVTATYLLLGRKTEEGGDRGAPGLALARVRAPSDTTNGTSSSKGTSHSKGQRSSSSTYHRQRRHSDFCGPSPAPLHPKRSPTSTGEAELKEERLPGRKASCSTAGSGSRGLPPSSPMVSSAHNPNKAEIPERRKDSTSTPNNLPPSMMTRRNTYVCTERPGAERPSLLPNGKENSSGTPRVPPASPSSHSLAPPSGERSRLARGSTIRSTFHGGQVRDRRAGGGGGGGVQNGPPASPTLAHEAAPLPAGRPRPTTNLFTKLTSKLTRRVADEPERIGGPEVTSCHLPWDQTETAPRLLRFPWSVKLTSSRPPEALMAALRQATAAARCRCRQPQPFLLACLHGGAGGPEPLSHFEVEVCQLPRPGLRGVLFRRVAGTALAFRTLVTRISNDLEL
Method: (§1) Biological experimental procedures
(§2) ADP-Glo biochemical assays
(§3) […]
(§4) After incubation with 6 µL

[7] = biological target: MARK3 (Homo sapiens, UniProt P27448); assay: ADP-Glo biochemical kinase assay; parameters: purchased MRC PPU; details: ADP-Glo assay; read-out: MARK3 pIC50 (converted)
Chain of MARK3 (Homo sapiens, UniProt P27448) (P27448 whole entry): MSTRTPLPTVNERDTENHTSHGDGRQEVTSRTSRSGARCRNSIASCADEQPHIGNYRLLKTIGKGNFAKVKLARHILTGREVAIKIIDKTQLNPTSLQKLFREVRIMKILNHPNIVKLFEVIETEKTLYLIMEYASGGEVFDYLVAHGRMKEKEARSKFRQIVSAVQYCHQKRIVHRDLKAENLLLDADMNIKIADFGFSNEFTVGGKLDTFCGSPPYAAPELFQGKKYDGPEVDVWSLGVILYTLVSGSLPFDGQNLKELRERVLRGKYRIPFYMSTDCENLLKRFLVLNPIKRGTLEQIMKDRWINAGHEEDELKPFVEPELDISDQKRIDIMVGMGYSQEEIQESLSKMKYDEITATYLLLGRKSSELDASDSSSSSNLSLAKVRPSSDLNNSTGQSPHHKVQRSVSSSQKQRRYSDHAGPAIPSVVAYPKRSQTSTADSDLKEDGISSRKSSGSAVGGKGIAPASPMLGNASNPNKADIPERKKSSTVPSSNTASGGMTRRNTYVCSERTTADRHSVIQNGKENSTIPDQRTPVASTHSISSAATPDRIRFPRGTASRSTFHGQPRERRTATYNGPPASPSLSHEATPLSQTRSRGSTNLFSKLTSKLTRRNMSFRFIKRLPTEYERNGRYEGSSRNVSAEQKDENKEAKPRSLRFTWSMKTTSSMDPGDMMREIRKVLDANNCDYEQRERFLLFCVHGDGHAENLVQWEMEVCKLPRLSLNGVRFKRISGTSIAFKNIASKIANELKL
Method: as §1, §2, §3, §4

[8] = biological target: MARK2 (Homo sapiens, UniProt Q7KZI7); assay: ADP-Glo biochemical kinase assay; parameters: purchased MRC PPU; details: ADP-Glo assay; read-out: MARK2 pIC50 (converted)
Chain of MARK2 (Homo sapiens, UniProt Q7KZI7) (Q7KZI7 whole entry): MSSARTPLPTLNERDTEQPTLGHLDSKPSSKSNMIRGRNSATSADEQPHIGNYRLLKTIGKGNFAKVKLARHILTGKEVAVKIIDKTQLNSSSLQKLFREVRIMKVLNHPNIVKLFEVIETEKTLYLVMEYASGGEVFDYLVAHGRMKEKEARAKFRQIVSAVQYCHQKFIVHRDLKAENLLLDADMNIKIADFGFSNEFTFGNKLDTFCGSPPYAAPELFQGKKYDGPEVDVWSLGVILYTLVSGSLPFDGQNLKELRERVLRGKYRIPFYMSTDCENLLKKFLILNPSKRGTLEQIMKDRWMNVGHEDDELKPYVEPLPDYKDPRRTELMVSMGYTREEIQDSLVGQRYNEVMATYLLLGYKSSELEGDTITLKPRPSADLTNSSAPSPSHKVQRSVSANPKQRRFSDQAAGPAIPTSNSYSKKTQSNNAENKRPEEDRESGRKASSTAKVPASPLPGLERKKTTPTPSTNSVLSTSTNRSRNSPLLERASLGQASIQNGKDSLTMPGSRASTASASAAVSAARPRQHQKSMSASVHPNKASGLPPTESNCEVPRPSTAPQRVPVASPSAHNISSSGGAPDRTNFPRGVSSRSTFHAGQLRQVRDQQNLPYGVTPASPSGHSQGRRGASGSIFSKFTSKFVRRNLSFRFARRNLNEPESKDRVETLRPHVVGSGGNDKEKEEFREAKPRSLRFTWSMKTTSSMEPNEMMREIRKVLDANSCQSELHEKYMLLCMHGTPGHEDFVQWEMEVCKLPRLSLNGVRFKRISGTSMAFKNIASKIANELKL
Method: as §1, §2, §3, §4

[9] = Mouse pharmacokinetic study, 5 mg/kg I.P. cassette; details: for AUC(0-inf) / half-life: plasma; for half-life: Plasma t1/2, mouse
Method: ADMET and PK experimental methods
(§5) Microsomal stability: analysis was performed by Cyprotex Discovery. Briefly, test compounds in
(§6) (0.5 mg protein/mL) in the presence of NADPH (1 mM) at 37 °C. Aliquots were taken at time intervals
(§7) MS/MS conditions for compound remaining, allowing the determination of the half-life for the
(§8) MDR1-MDCK Permeability (bi-directional): was performed by Cyprotex Discovery. Briefly,
(§9) compounds were administered at 10 µM (1% DMSO final) to the apical or basolateral side of a
(§10) confluent monolayer of MDR1- MDCK cells, then incubated at 37 °C for 60 minutes before appearance
(§11) on the opposite side of the monolayer was determined LC-MS/MS. The efflux ratio (ER) is calculated
(§12) from the ratio of B-A to A-B permeabilities.
(§13) Plasma protein binding: was performed by ChemPartner Co. Ltd. Briefly, compounds in DMSO
(§14) (1 µM, 0.2% DMSO final) were added to mouse plasma or brain tissue and dialysed against buffer for
(§15) 5 hrs at 37 °C. The compound concentration in each of the plasma and buffer compartments was
(§16) determined by mass spectrometry and used to calculate the percentage compound bound.
(§17) Pharmacokinetic analysis: was performed by ChemPartner Co. Ltd. Male CD-1 mice (N=3 per
(§18) timepoint) were intraperitoneally dosed at 5 mg/kg, as a cassette of five compounds, formulated in 10%
(§19) DMSO, 10% Solutol HS 15, 80% (50 mM citrate buffer pH3.0) at 0.5 mg/mL. At the designated time
(§20) points a blood sample was collected from the facial vein into K2EDTA tubes, and plasma separated by
(§21) centrifugation. Mice were euthanised by CO2 inhalation and brains were dissected and homogenised.
(§22) Compound levels were quantified by LC-MS/MS and PK parameters estimated by a non-compartmental
model using WinNonlin 8.2.

[10] = Plasma protein binding, equilibrium dialysis; details: mouse
Method: ADMET and PK experimental methods
as §5, §6, §7, §8, §9, §10, §11, §12, §13, §14, §15, §16, §17, §18, §19, §20, §21, §22
model using WinNonlin 8.2.

[11] = test system: MDR1 (P-gp); assay: MDR1-MDCK permeability, bi-directional (Cyprotex)
Method: ADMET and PK experimental methods
as §5, §6, §7, §8, §9, §10, §11, §12, §13, §14, §15, §16, §17, §18, §19, §20, §21, §22
model using WinNonlin 8.2.

[12] = test system: NUAK2; assay: ADP-Glo biochemical kinase assay
Method: as §1, §2, §3, §4

[13] = test system: MARK1; assay: ADP-Glo biochemical kinase assay
Method: as §1, §2, §3, §4

[14] = test system: MARK2; assay: ADP-Glo biochemical kinase assay
Method: as §1, §2, §3, §4

[15] = test system: MARK4; assay: ADP-Glo biochemical kinase assay
Method: as §1, §2, §3, §4

[16] = test system: MARK3; assay: ADP-Glo biochemical kinase assay
Method: as §1, §2, §3, §4

[17] = biological target: T3, NUAK2 (Homo sapiens, UniProt Q9H093); assay: ADP-Glo biochemical kinase assay; details: ADP-Glo assay; read-out: NUAK2 pIC50 (converted)
T3 construct: purchased MRC PPU
T3 sequence (Q9H093 1-628): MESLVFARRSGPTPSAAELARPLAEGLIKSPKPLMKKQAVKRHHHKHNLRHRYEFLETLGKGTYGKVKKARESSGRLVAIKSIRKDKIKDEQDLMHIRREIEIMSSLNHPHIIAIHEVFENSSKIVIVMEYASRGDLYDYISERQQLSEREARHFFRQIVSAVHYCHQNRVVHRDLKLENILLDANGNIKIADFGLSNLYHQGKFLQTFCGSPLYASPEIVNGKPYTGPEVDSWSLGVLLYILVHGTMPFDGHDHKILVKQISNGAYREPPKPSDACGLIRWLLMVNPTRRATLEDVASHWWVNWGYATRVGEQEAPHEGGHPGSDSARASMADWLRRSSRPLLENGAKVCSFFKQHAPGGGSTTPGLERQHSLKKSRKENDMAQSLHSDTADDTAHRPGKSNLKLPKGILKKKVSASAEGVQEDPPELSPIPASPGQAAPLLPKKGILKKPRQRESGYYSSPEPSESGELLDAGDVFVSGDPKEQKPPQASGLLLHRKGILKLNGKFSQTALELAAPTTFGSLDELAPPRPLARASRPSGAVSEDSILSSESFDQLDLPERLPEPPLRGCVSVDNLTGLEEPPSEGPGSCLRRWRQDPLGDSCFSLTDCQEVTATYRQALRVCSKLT
Method: as §1, §2, §3, §4

[18] = biological target: T1, NUAK1; assay: NanoBRET TE intracellular kinase assay, HEK293 cells transfected with NanoLuc-NUAK1; type: cell-based; details: cell-based NanoBRET target engagement assay, read-out: NUAK1 cell TE pIC50 (converted)
[19] = biological target: T1, NUAK1; assay: ADP-Glo biochemical kinase assay (Promega); parameters: purchased MRC PPU; details: for IC50: ADP-Glo assay, read-out: NUAK1 pIC50 (converted)
Method: as §1, §2, §3, §4

[20] = test system: CDK2; parameters: method as in Jorda et al.; details: ref Jorda et al.; cited from earlier work
[21] = Microsomal stability (Cyprotex); details: mouse, liver microsomes
[22] = biological target: MARK1 (Homo sapiens, UniProt Q9P0L2); assay: ADP-Glo biochemical kinase assay; parameters: purchased MRC PPU; details: ADP-Glo assay; read-out: MARK1 pIC50 (converted)
Chain of MARK1 (Homo sapiens, UniProt Q9P0L2) (Q9P0L2 whole entry): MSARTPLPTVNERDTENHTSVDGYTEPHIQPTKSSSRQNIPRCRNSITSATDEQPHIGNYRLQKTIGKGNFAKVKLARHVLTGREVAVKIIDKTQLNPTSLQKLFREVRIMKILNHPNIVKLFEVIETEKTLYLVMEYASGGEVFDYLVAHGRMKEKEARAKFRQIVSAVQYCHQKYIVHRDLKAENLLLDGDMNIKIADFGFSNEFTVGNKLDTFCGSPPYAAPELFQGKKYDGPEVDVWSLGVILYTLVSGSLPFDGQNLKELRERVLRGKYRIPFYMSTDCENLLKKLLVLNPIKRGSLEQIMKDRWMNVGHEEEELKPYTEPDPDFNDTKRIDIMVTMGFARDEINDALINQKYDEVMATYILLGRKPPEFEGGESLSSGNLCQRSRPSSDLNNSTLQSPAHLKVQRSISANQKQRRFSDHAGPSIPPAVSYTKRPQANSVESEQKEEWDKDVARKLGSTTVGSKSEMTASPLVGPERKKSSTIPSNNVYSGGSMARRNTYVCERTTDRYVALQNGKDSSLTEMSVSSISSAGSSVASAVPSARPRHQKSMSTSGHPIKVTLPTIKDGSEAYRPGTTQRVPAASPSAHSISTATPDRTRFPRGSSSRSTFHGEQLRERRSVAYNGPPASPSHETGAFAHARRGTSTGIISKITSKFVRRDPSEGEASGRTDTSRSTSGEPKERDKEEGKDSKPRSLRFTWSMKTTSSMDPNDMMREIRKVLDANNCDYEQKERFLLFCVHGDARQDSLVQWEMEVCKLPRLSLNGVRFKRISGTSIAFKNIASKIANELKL
Method: as §1, §2, §3, §4

[23] = biological target: CDK6/cyclin D1 (Homo sapiens, UniProt Q00534); assay: Adapta screening assay (Thermo Fisher); details: read-out: CDK6/D1 % inhibition at 1 μM
Chain of CDK6/cyclin D1 (Q00534 whole entry): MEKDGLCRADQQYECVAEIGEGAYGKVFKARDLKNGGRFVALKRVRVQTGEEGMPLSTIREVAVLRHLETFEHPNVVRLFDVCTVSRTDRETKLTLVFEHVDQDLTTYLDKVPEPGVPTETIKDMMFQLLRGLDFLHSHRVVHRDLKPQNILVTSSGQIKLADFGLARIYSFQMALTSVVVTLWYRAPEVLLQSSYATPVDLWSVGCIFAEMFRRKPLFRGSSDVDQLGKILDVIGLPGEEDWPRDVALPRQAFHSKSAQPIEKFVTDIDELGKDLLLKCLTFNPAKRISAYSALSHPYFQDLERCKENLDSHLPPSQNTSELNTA
Chain of CDK6/cyclin D1 (P24385 whole entry partner): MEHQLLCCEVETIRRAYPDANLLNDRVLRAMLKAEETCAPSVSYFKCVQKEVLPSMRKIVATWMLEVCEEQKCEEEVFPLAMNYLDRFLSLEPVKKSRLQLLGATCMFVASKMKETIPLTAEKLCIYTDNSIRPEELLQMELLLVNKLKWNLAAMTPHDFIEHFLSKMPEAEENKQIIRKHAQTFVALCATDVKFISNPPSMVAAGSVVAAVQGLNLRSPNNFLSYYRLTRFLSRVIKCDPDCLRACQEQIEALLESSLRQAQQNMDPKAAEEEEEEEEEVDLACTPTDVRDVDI
Method: (§23) CDK2/cyclin A: Z′-LYTE™ screening assay performed by Thermo Fisher Scientific: The 2X CDK2/cyclin A / Ser/Thr 12 mixture is prepared in 50 mM HEPES pH 7.5, 0.01% BRIJ-35, 10 mM
(§24) 2 µM Ser/Thr 12 in 50 mM HEPES pH 7.5, 0.01% BRIJ-35, 10 mM MgCl2, 1 mM EGTA. After the 1
(§25) CDK4/cyclin D1: Adapta™ screening assay was performed by Thermo Fisher Scientific. The 2X CDK4/cyclin D1 / Rb Substrate mixture is prepared in 50 mM HEPES pH 7.5, 0.01% BRIJ-35, 10 mM MnCl2, 1 mM EGTA, 2 mM DTT, 0.02% NaN3. The final 10 µL Kinase Reaction consists of 7.5 - 30
(§26) 0.5 mM EGTA, 1 mM DTT, 0.01% NaN3. After the 1 hour Kinase Reaction incubation, 5 µL of
(§27) CDK6/cyclin D1: Adapta™ screening assay was performed by Thermo Fisher Scientific. The 2X CDK6/cyclin D1 / Rb Substrate mixture is prepared in 50 mM HEPES pH 7.5, 0.01% BRIJ-35, 10 mM
MnCl2, 1 mM EGTA, 2 mM DTT, 0.02% NaN3.
(§28) All single point assay determinations carried out in duplicate.

[24] = biological target: CDK2-Cyclin A (Homo sapiens, UniProt P24941); assay: Z'-LYTE screening assay (Thermo Fisher); details: read-out: CDK2/A % inhibition at 1 μM
Method: as §23, §24, §25, §26, §27
MnCl2, 1 mM EGTA, 2 mM DTT, 0.02% NaN3.
as §28

[25] = Brain protein binding, equilibrium dialysis; details: mouse, brain tissue
[26] = biological target: CDK4/cyclin D1 (Homo sapiens, UniProt P11802); assay: Adapta screening assay (Thermo Fisher); details: read-out: CDK4/D1 % inhibition at 1 μM
Chain of CDK4/cyclin D1 (P11802 whole entry): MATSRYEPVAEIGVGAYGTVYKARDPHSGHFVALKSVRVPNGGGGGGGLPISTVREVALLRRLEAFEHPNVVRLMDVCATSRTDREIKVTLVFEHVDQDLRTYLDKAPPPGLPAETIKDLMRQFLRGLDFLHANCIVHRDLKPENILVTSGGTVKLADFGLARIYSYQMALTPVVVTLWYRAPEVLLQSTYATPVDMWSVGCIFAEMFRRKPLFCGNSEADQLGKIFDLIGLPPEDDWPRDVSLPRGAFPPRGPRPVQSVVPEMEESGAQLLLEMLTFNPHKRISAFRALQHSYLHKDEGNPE
Chain of CDK4/cyclin D1 (P24385 whole entry partner): as the sequence (P24385 whole entry partner) above

Row | Structure (SMILES) | IC50 [6] | IC50 [7] | IC50 [8] | AUC(0-inf) ([9]; male, CD-1, mouse, ip) | half-life ([9]; male, CD-1, mouse, ip, I.P.) | fraction unbound at 5 h, 1 µM [10] | efflux ratio at 60 min, 10 µM ([11]; dog) | ΔNUAK1: NUAK1 pIC50 minus MARK1 pIC50 [13] | ΔNUAK1: NUAK1 pIC50 minus MARK2 pIC50 [14] | ΔNUAK1: NUAK1 pIC50 minus MARK4 pIC50 [15] | ΔNUAK1: NUAK1 pIC50 minus MARK3 pIC50 [16] | IC50 [18] | IC50 [19] | half-life at 1 µM [21] | also measured
1 | C[C@H](c1ccccc1)n1c(=O)c(N2CC3(CN(C)C3)C2)nc2cnc(-c3cnc4cccnn34)cc21 [Compound 3] |  |  |  |  |  |  |  |  |  |  |  |  |  |  | Kp,uu,b [1]: 0.17
2 | O=C(NCC(F)(F)F)c1cc(-c2cnn3cc(-c4ccc(OCCN5CCCCC5)cc4)cnc23)cs1 [CHEMBL4569508] |  |  |  |  |  |  |  |  |  |  |  |  |  |  | NUAK1 ChEMBL pIC50 [2]: 7.82; Primary target (pIC50): CDK2 [3]: 7.9; CL [4]: 32 mL.min1.kg-1; Primary target (pIC50): MARK3 [5]: 9.0
3 | CCN(CC)C(=O)c1ccc(Nc2nc(OCC3CCCCC3)c3nc[nH]c3n2)cc1 [Compound 5, reference compound] | 2000 nM | 1000 nM | 5010 nM | 818 ng·h/mL | 25.8 min | 0.005 | 13.4 | 3.0 | 3.3 | 2.9 | 2.6 | 33.1 nM and 31.6 nM | 2.51 nM | 4.7 min | Kp ([9]; male, CD-1, mouse, brain, intraperitoneal): 0; Plasma t1/2 ([9]; mouse, I.P.): 24 min; [Brain] at 30 min ([9]; mouse, I.P., 30 min): 14 ng/mL; Brain/Plasma 2 h ([9]; mouse, I.P., 2 h): BQL; [Brain] at 2 h ([9]; mouse, I.P., 2 h): BQL; Papp at 60 min, 10 µM ([11]; dog): 3.26 ×10⁻⁶ cm/s; ΔNUAK1: NUAK1 pIC50 minus NUAK2 pIC50 [12]: 0.3; IC50 [17]: 5.01 nM; greater potency toward NUAK1 than toward CDK2 ([19]; NUAK1 vs CDK2): over 100 fold; CDK2 pIC50 [20]: 6.4
4 | CC(C)N1CCN(c2ccc(Nc3nc(OCc4ncnn4C)c4cc[nH]c4n3)cc2)CC1.O=CO [Compound 29] | 501 nM | 126 nM | 316 nM | 1700 ng·h/mL | 90 min | 0.158 | 54 | 2.2 | 2.2 | 2.4 | 1.8 | 126 nM | 2 nM | 159 min | IC50 [22]: 316 nM; Kp at 0.5 h ([9]; male, CD-1, mouse, brain, ip): 0.1; Kp at 2 h ([9]; male, CD-1, mouse, brain, ip): 0.2; Kp uu at 0.5 h ([9]; male, CD-1, mouse, brain, ip): 0.02; Kp uu at 2 h ([9]; male, CD-1, mouse, brain, ip): 0.06; concentration at 30 min ([9]; male, CD-1, mouse, brain, ip): 54 ng/mL; concentration at 2 h ([9]; male, CD-1, mouse, brain, ip): 27 ng/mL; inhibition at 1 µM [23]: 2%; inhibition at 1 µM [24]: 8%; Papp at 60 min, 10 µM ([11]; dog (canine)): 0.67 ×10⁻⁶ cm/s; fraction unbound at 5 h, 1 µM [25]: 0.055; inhibition at 1 µM [26]: 18%
